Test results published in ChEMBL document CHEMBL3856235, “Characterization of 3,3-dimethyl substituted N-aryl piperidines as potent microsomal prostaglandin E synthase-1 inhibitors” (Bioorg Med Chem Lett, 2016).

Tests used:
Prostaglandin E synthase [1] = biological target: T1, Prostaglandin E synthase (Homo sapiens, UniProt O14684)
T1 sequence (O14684 whole entry): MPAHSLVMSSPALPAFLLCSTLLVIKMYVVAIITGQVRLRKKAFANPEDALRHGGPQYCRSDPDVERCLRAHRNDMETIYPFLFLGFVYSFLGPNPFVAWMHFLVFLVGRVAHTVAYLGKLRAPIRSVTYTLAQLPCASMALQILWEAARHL
Description: Inhibition of mPGES-1 in human whole blood assessed as reduction in LPS-induced PGE2 production preincubated for 30 mins followed by LPS stimulation for 20 to 24 hrs by LC/MS/MS analysis

Prostaglandin E synthase [2] = biological target: T1, Prostaglandin E synthase; test: Inhibition of human mPGES-1 expressed in 293E cells assessed as reduction in conversion of PGH2 to PGE2 after 1.5 min by LC/MS analysis; type: cell-based
Prostaglandin E synthase [3] = biological target: T1, Prostaglandin E synthase; test: Inhibition of mPGES-1 in human A549 cells assessed as reduction in recombinant human interleukin-1 beta-induced PGE2 production preincubated for 30 mins measured after 18 hrs by ELISA; type: cell-based
[4] = Half life in rat at 1 mg/kg, iv; type: ADME, organism-based; details: in vivo
CYP3A4 [5] = biological target: T2, CYP3A4 (Homo sapiens, UniProt P08684); test: Inhibition of CYP3A4 in human hepatic microsomes assessed as reduction in probe substrate metabolism at 10 uM; type: ADME; details: liver microsomes
[6] = Cmax in rat at 5 mg/kg, po; type: ADME, organism-based; set-up: dose 5 mg/kg, route oral; details: in vivo
[7] = Clearance in Beagle dog at 1 mg/kg, iv; type: ADME, organism-based, Canis lupus familiaris; details: in vivo
CYP2C9 = CYP2C9 (Homo sapiens, UniProt P11712); test: Inhibition of CYP2C9 in human hepatic microsomes assessed as reduction in probe substrate metabolism at 10 uM; type: ADME; details: liver microsomes
[8] = Volume of distribution at steady state in rat at 1 mg/kg, iv; type: ADME, organism-based; details: in vivo, read-out: Vdss
[9] = Drug metabolism in rat liver microsomes at 4 uM; type: ADME; details: read-out: Drug metabolism
[10] = Oral bioavailability in rat at 5 mg/kg; type: ADME, organism-based; details: in vivo
[11] = Inhibition of rat mPGES-1
Prostaglandin E synthase [12] = biological target: T3, Prostaglandin E synthase (Canis lupus familiaris, UniProt A0SYQ0); test: Inhibition of mPGES-1 in dog whole blood; type: tissue-based
T3 sequence (A0SYQ0 whole entry): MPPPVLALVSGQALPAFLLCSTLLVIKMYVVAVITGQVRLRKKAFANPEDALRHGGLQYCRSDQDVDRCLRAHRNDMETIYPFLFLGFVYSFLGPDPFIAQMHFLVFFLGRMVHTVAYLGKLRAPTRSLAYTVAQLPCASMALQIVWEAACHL

CYP3A4 [13] = biological target: T2, CYP3A4; test: Time dependent inhibition of CYP3A4 in human hepatic microsomes assessed as reduction in probe substrate metabolism at 10 uM; type: ADME; details: liver microsomes, read-out: TDI
[14] = Volume of distribution at steady state in Beagle dog at 1 mg/kg, iv; type: ADME, organism-based, Canis lupus familiaris; details: in vivo, read-out: Vdss
[15] = Clearance in rat at 1 mg/kg, iv; type: ADME, organism-based; details: in vivo
CYP2D6 = CYP2D6 (Homo sapiens, UniProt P10635); test: Inhibition of CYP2D6 in human hepatic microsomes assessed as reduction in probe substrate metabolism at 10 uM; type: ADME; details: liver microsomes
[16] = Drug metabolism in human liver microsomes at 4 uM; type: ADME; details: read-out: Drug metabolism
Prostaglandin E synthase [17] = biological target: T3, Prostaglandin E synthase; test: Inhibition of dog mPGES-1
[18] = Oral bioavailability in Beagle dog at 15 mg/kg; type: ADME, organism-based, Canis lupus familiaris; details: in vivo
[19] = Drug metabolism in dog liver microsomes at 4 uM; type: ADME, Canis lupus familiaris; details: read-out: Drug metabolism
[20] = Time at which plasma concentration remains above dog whole blood IC50 level in Beagle dog at 3 mg/kg, po; type: ADME, organism-based, Canis lupus familiaris; details: in vivo
Prostaglandin E synthase [21] = biological target: T1, Prostaglandin E synthase; test: Inhibition of mPGES-1 (unknown origin)
[22] = Time at which plasma concentration remains above human whole blood IC50 level in human at 200 mg, po; type: ADME

CYP2D6, sequence (P10635 whole entry): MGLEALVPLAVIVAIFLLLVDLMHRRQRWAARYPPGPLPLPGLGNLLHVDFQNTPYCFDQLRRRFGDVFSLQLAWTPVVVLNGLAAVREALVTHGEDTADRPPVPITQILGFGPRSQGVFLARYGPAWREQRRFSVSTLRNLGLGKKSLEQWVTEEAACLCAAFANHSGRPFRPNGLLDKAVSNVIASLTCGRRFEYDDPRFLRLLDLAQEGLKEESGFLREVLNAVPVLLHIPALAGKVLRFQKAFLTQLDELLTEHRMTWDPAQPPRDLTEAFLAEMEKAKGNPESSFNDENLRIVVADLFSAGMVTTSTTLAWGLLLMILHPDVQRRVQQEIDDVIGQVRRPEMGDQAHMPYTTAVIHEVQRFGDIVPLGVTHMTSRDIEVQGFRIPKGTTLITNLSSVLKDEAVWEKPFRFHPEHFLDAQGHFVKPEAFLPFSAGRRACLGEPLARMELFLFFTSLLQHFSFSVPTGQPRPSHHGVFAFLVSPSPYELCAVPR
CYP2C9, sequence (P11712 whole entry): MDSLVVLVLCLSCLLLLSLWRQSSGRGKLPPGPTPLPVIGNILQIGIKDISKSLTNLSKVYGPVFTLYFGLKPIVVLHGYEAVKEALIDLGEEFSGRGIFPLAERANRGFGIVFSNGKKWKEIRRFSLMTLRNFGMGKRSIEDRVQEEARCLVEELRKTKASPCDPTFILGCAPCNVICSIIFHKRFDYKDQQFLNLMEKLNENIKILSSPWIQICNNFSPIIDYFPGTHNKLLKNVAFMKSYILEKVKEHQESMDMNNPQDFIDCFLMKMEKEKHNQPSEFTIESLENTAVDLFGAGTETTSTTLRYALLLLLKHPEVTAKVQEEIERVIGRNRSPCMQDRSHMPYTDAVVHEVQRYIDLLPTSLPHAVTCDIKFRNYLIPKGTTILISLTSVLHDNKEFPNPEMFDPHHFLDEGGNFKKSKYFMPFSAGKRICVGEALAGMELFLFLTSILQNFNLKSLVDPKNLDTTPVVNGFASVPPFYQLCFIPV
T2 sequence (P08684 whole entry): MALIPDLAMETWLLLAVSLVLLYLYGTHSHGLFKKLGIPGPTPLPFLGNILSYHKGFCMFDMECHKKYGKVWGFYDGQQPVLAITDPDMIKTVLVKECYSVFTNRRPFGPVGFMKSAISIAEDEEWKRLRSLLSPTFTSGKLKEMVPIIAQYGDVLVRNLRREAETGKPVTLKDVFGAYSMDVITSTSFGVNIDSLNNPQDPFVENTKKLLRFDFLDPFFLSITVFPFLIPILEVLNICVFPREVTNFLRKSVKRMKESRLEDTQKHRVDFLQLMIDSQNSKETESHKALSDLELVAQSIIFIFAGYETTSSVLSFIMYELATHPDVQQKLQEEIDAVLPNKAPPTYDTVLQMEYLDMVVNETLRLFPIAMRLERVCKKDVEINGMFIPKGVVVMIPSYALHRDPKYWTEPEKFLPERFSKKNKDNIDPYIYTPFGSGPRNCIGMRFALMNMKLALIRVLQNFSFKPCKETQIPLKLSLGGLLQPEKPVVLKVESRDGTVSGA

SMILES: Cc1cccc2ccc(N3CC[C@H](C(=O)N[C@H]4CCCOC4)C(C)(C)C3)nc12
- IC50 (Prostaglandin E synthase [1]): 36 nM
- IC50 (Prostaglandin E synthase [2]): 7 nM
- IC50 (Prostaglandin E synthase [3]): 72 nM

SMILES: CC1(C)CN(c2ccc(C(F)(F)F)cc2)CC[C@H]1C(=O)N[C@H]1CCC[C@H](CO)C1
- IC50 (Prostaglandin E synthase [2]): 504 nM
- IC50 (Prostaglandin E synthase [3]): 4500 nM

SMILES: CC1(C)CN(c2ccc3cccc(Cl)c3n2)CC[C@@H]1C(=O)N[C@H]1CC[C@@H](CO)CC1
- IC50 (Prostaglandin E synthase [1]): 23 nM
- IC50 (Prostaglandin E synthase [2]): 4 nM
- IC50 (Prostaglandin E synthase [3]): 30 nM

SMILES: Cc1cccc2ccc(N3CC[C@H](C(=O)N[C@H]4CCOC4)C(C)(C)C3)nc12
- IC50 (Prostaglandin E synthase [1]): 51 nM
- IC50 (Prostaglandin E synthase [2]): 6 nM
- IC50 (Prostaglandin E synthase [3]): 23 nM

SMILES: Cc1cccc2ccc(N3CC[C@H](C(=O)N[C@H]4CCO[C@H](CO)C4)C(C)(C)C3)nc12
- half-life [4]: 2.3 h
- inhibition at 10 µM (CYP3A4 [5]): 10%
- IC50 (Prostaglandin E synthase [1]): 7 nM
- Cmax [6]: 2050 nM
- clearance [7]: 3.62 mL/min/kg
- inhibition at 10 µM (CYP2C9): 15%
- Vd [8]: 2.3 L/kg
- metabolised at 4 µM [9]: 16%
- bioavailability [10]: 100%
- IC50 (Prostaglandin E synthase [2]): 2 nM
- IC50 [11]: 7870 nM
- IC50 (Prostaglandin E synthase [3]): 5 nM
- IC50 (Prostaglandin E synthase [12]): 23 to 28 nM
- inhibition at 10 µM (CYP3A4 [13]): 39%
- Vd [14]: 1.6 L/kg
- clearance [15]: 14 mL/min/kg
- inhibition at 10 µM (CYP2D6): 0%
- metabolised at 4 µM [16]: 20%
- IC50 (Prostaglandin E synthase [17]): 11 nM
- bioavailability [18]: 74%
- metabolised at 4 µM [19]: 13%
- Time [20]: 24 h

SMILES: Cc1cccc2ccc(N3CC[C@H](C(=O)N[C@H]4CC[C@@H](CO)CC4)C(C)(C)C3)nc12
- half-life [4]: 2.6 h
- inhibition at 10 µM (CYP3A4 [5]): 35%
- IC50 (Prostaglandin E synthase [1]): 2 nM
- Cmax [6]: 1450 nM
- inhibition at 10 µM (CYP2C9): 54%
- Vd [8]: 1.4 L/kg
- metabolised at 4 µM [9]: 64%
- bioavailability [10]: 54%
- IC50 (Prostaglandin E synthase [2]): 1 nM
- IC50 (Prostaglandin E synthase [3]): 2 nM
- inhibition at 10 µM (CYP3A4 [13]): 75%
- clearance [15]: 21 mL/min/kg
- inhibition at 10 µM (CYP2D6): 4%
- metabolised at 4 µM [16]: 46%
- metabolised at 4 µM [19]: 60%

SMILES: CC1(C)CN(c2ccc(C(F)(F)F)cc2)CC[C@@H]1C(=O)N[C@H]1CCC[C@H](CO)C1
- IC50 (Prostaglandin E synthase [1]): 5 nM
- IC50 (Prostaglandin E synthase [2]): 3 nM
- IC50 (Prostaglandin E synthase [3]): 11 nM

SMILES: Cc1cccc2ccc(N3CC[C@H](C(=O)N[C@H](C)C(C)C)C(C)(C)C3)nc12
- IC50 (Prostaglandin E synthase [1]): 77 nM
- IC50 (Prostaglandin E synthase [2]): 12 nM
- IC50 (Prostaglandin E synthase [3]): 89 nM

SMILES: CC1(C)CN(c2ccc3cccc(Cl)c3n2)CC[C@H]1C(=O)N[C@H]1CC[C@@H](CO)CC1
- IC50 (Prostaglandin E synthase [2]): 3720 nM
- IC50 (Prostaglandin E synthase [3]): > 10000 nM

SMILES: Cc1cc2nc(N3CCC(C(=O)NC4CCCC4)CC3)n(-c3ccc(F)c(C)c3)c2cc1C
- IC50 (Prostaglandin E synthase [21]): 25 nM

SMILES: Cc1cccc2ccc(N3CC[C@H](C(=O)N[C@H]4CCC[C@H](CO)C4)C(C)(C)C3)nc12
- half-life [4]: 0.6 h
- inhibition at 10 µM (CYP3A4 [5]): 43%
- IC50 (Prostaglandin E synthase [1]): 1 nM
- Cmax [6]: 1430 nM
- inhibition at 10 µM (CYP2C9): 64%
- Vd [8]: 1.3 L/kg
- metabolised at 4 µM [9]: 73%
- bioavailability [10]: 30%
- IC50 (Prostaglandin E synthase [2]): 1 nM
- IC50 (Prostaglandin E synthase [3]): 3 nM
- inhibition at 10 µM (CYP3A4 [13]): 82%
- clearance [15]: 34 mL/min/kg
- inhibition at 10 µM (CYP2D6): 0%
- metabolised at 4 µM [16]: 50%
- metabolised at 4 µM [19]: 57%

SMILES: Cc1ccc(-c2cc(C(F)(F)F)nn2-c2ccc(S(N)(=O)=O)cc2)cc1 [CELECOXIB]
- Time [22]: 8 to 12 h
